# In publication PMC7217877, “N-AS-triggered SPMs are direct regulators of microglia in a model of Alzheimer’s disease” (Nature Communications, 2020):
# Values joined by “and” are separate entries in the source; they are usually repeats but may differ in a detail not shown here. Equal entries are not always repeated.
# Tested on: APP/PS1 mice
# Experiment: lipid mediator-SPM profile of microglia isolated from treated mice (LC-MS/MS, Supplementary Table 2, Fig 4e-g)
# Format: in vivo, mouse
# Parameters: 15R-LXA4 level in microglia (sFig 4g) / RvE1 level in microglia (sFig 4g) / RvD1 level in microglia (sFig 4g): unit not given here
# Procedure: Lipid mediators metabololipidomics were performed according to previously described procedures with minor modifications[4],[30]. To confirm the biosynthesis of lipid mediators by recombinant COX2 treated with N-AS or aspirin, 10 U of human recombinant COX2 (Cayman, 60122) was incubated in the presence of 500 μM aspirin (Sigma-Aldrich, A5376) or N-AS (Sigma-Aldrich, 01912) at 37 °C for 30 min. The enzyme was filtered with a Microcon column (Millipore) to remove unreacted aspirin or N-AS and was then resuspended in 0.1 M Tris-HCl (pH 8.0). Next, 500 μM phenol (Sigma-Aldrich) and 1 μM hematin-porcine (Sigma-Aldrich) were added immediately before incubation with 100 μM AA, EPA or DHA (Cayman) at 37 °C for 2 h, respectively. The mixtures were incubated with 30 U of human 5-LOX (Cayman, 60402) containing 2 mM CaCl2 (Sigma-Aldrich), 1 mM ATP (Amresco) and 5 μM 13-HpODE (Cayman) as activators. Also, to validate the importance of residue S565 for N-AS-acetylation of COX2 and production of SPMs, 10 U of the COX2 S565A mutant was used in the above-described method. In addition, to confirm SPM generation in neurons and microglia, these cells were treated with Aβ and sonicated in neuronal and glial culture medium. […] To evaluate the relationship of N-AS and SPM production in microglia, microglia were isolated from WT, APP/PS1, and APP/PS1 treated with N-AS mice at 9 months of age. The microglia were sonicated and resuspended in microglial culture medium. The supernatants were incubated with 100 μM AA, EPA, and DHA (Cayman) at 37 °C for 2 h. A 50 μl aliquot of the mixture from each cell lysate was added to a 250 μl aliquot of 1 ng ml^−1 of 15S-LXA4-d5 (internal standard, Cayman) methanol solution. After vortexing for 10 min and centrifuging at 15,974×g for 5 min, the supernatant was subjected to the analysis of the lipid mediators using an Agilent 6470 Triple Quad LC-MS/MS system (Agilent) coupled to an Agilent 1290 HPLC system. Chromatographic separation was achieved using a Synergi Polar RP (4 μm, 2.0 mm i.d. × 150 mm, Phenomenex). Analytes were eluted with a mobile phase consisting of water: formic acid (100:0.1 v/v) (phase A) and methanol: formic acid (100:0.1 v/v) (phase B) in gradient elution mode for 23 min a flow rate of 0.2 ml min^−1. The elution gradient was as follows: from 0 to 0.1 min the content of phase A was 37% and the content of phase A was decreased to 10% and maintained for 5.5 min. The content of phase A was increased back to 37% at 6.0 min and maintained for 23 min. Quantification was carried out using MRM in negative ionization mode and collision energy of 10–15 eV. The mass transition from Q1 to Q3 is shown in Supplementary Table 2. In this study, the peak areas for all components were automatically integrated using MassHunter B 06.00.
# Adult neurons and microglia were isolated from the mice brain as previously described. In brief, the cortex of WT (1, 3, 5, or 9-months-old), APP/PS1 (1, 3, 5, or 9-months-old), APP/PS1 treated with N-AS (9-months-old) or APP/PS1 treated with aspirin (9-months-old) mice were minced in Hibernate A (Gibco)/B27 (Invitrogen) medium and dissociated using papain (Worthington) solution. After tissue trituration, cells were separated by Optiprep (Sigma-Aldrich) density gradient centrifugation. The purity of the fractionated neurons and microglia were acutely confirmed by neuronal (NeuN, mouse, 1:200, Millipore, MAB377) and microglial (Iba1, rabbit, 1:1000, Wako, 019-19941) markers and the isolated neurons and microglia were acutely analyzed for the acetylation assay and lipid mediators metabololipidomics.
# Transgenic mouse lines over-expressing the hAPP695swe (APP) and presenilin-1M146V (PS1) mutations were originated from GlaxoSmithKline (Harlow, UK)[32] and maintained as described previously. We purchased 5×FAD mice from Jackson Labs (Stock number. 34840-JAX). Because APP/PS1 and 5xFAD mice show sex differences in disease progression, we used only male mice. […]
# [1] = APP/PS1 + N-AS, individual samples
structure (smiles),measurement,setting,value
"CCCCCCCCCCCCC/C=C/[C@@H](O)[C@H](CO)NC(C)=O [N-AS, N-((2S,3R,E)-1,3-Dihydroxyoctadec-4-en-2-yl)acetamide]",15R-LXA4 level in microglia (sFig 4g),[1],4570 and 5879.36 and 4407.58 and 3923.74 and 3772.92 and 3755.88 and 4463.12 and 4253.3
same,RvD1 level in microglia (sFig 4g),[1],122.239 and 113.373 and 105 and 174.655 and 77.0631 and 102.088 and 125.141 and 80.0045
same,RvE1 level in microglia (sFig 4g),[1],121.276 and 201.615 and 123.367 and 132.221 and 152.593 and 109.936 and 221.33
same,11-HEPE in mouse microglia,"APP/PS1/N-AS, mean±s.e.m., n=6",8016.0±190.1 pg/1*106cell
same,11-HETE in mouse microglia,"APP/PS1/N-AS, mean±s.e.m., n=6",8870.6±557.1 pg/1*106cell
same,13-HDHA in mouse microglia,"APP/PS1/N-AS, mean±s.e.m., n=6",6824.5±237.7 pg/1*106cell
same,15-HEPE in mouse microglia,"APP/PS1/N-AS, mean±s.e.m., n=6",5286.6±214.8 pg/1*106cell
same,15-HETE in mouse microglia,"APP/PS1/N-AS, mean±s.e.m., n=6",33117.1±1929.6 pg/1*106cell
same,15R-LXA4 in mouse microglia,"APP/PS1/N-AS, mean±s.e.m., n=6",4378.2±241.8 pg/1*106cell
same,17-HDHA in mouse microglia,"APP/PS1/N-AS, mean±s.e.m., n=6",86224.5±10404.3 pg/1*106cell
same,18-HEPE in mouse microglia,"APP/PS1/N-AS, mean±s.e.m., n=6",31965.9±2934.1 pg/1*106cell
same,AA in mouse microglia,"APP/PS1/N-AS, mean±s.e.m., n=6",39563.5±824.8 pg/1*106cell
same,DHA in mouse microglia,"APP/PS1/N-AS, mean±s.e.m., n=6",37384.7±1351.7 pg/1*106cell
same,EPA in mouse microglia,"APP/PS1/N-AS, mean±s.e.m., n=6",406.6±21.1 pg/1*106cell
same,LTB4 in mouse microglia,"APP/PS1/N-AS, mean±s.e.m., n=6",876.5±71.9 pg/1*106cell
same,PGE3/PGD3 in mouse microglia,"APP/PS1/N-AS, mean±s.e.m., n=6",2590.3±243.8 pg/1*106cell
same,PGH2/PGE2 in mouse microglia,"APP/PS1/N-AS, mean±s.e.m., n=6",3862.0±266.4 pg/1*106cell
same,RvD1 in mouse microglia,"APP/PS1/N-AS, mean±s.e.m., n=6",112.4±10.9 pg/1*106cell
same,RvE1 in mouse microglia,"APP/PS1/N-AS, mean±s.e.m., n=6",151.8±16.3 pg/1*106cell
same,TxB3 in mouse microglia,"APP/PS1/N-AS, mean±s.e.m., n=6",1209.9±70.0 pg/1*106cell
